Tests used:
Type in all cases: biochemical
SRC = SRC (Homo sapiens, UniProt P12931); experiment: Inhibition of a panel of kinases, in vitro HotSpot kinase assay: SRC; conditions: D-compounds panel data; 1 μM ATP
Protocol: (§1) The degree of inhibition of a panel of kinases is determined using the in vitro HotSpot kinase assay (purified enzymes, ^33P-ATP, an appropriate substrate and 1 μM ATP).

JAK3 = target: T1, JAK3 (Homo sapiens, UniProt P52333); experiment: Inhibition of a panel of kinases, in vitro HotSpot kinase assay: JAK3; conditions: D-compounds panel data; 1 μM ATP; read-out: IC50 JAK3
T1 sequence (P52333 1-1124): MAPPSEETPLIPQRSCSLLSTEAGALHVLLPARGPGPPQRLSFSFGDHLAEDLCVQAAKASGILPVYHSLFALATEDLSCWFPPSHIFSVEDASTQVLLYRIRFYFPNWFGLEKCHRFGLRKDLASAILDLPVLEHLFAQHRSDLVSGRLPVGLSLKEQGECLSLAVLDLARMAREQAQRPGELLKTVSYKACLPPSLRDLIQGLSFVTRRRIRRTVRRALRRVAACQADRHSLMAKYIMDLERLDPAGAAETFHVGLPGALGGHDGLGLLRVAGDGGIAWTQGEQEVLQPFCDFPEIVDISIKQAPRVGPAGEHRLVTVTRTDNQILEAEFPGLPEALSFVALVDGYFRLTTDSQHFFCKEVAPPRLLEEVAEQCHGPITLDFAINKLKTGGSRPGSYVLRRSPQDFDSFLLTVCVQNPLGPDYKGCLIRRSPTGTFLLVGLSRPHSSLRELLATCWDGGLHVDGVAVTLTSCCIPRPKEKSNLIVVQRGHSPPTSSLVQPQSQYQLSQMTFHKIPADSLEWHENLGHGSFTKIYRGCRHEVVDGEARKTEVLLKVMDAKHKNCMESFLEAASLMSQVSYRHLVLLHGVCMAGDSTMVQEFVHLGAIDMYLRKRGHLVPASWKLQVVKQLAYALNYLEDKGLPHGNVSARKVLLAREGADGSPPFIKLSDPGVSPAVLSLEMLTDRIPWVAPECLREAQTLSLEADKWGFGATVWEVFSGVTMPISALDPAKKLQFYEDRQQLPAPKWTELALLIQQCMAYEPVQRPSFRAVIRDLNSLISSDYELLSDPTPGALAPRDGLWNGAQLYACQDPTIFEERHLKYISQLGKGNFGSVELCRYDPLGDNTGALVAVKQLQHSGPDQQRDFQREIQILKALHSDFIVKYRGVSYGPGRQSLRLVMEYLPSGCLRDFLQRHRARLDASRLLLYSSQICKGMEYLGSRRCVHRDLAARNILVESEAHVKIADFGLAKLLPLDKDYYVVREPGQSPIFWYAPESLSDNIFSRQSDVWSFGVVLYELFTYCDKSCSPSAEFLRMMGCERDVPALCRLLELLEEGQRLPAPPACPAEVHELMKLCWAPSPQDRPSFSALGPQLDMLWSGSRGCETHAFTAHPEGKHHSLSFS

EGFR = EGFR (Homo sapiens, UniProt P00533); experiment: Inhibition of a panel of kinases, in vitro HotSpot kinase assay: EGFR; conditions: D-compounds panel data; 1 μM ATP
Protocol: as §1

Chain of EGFR (P00533 25-1210): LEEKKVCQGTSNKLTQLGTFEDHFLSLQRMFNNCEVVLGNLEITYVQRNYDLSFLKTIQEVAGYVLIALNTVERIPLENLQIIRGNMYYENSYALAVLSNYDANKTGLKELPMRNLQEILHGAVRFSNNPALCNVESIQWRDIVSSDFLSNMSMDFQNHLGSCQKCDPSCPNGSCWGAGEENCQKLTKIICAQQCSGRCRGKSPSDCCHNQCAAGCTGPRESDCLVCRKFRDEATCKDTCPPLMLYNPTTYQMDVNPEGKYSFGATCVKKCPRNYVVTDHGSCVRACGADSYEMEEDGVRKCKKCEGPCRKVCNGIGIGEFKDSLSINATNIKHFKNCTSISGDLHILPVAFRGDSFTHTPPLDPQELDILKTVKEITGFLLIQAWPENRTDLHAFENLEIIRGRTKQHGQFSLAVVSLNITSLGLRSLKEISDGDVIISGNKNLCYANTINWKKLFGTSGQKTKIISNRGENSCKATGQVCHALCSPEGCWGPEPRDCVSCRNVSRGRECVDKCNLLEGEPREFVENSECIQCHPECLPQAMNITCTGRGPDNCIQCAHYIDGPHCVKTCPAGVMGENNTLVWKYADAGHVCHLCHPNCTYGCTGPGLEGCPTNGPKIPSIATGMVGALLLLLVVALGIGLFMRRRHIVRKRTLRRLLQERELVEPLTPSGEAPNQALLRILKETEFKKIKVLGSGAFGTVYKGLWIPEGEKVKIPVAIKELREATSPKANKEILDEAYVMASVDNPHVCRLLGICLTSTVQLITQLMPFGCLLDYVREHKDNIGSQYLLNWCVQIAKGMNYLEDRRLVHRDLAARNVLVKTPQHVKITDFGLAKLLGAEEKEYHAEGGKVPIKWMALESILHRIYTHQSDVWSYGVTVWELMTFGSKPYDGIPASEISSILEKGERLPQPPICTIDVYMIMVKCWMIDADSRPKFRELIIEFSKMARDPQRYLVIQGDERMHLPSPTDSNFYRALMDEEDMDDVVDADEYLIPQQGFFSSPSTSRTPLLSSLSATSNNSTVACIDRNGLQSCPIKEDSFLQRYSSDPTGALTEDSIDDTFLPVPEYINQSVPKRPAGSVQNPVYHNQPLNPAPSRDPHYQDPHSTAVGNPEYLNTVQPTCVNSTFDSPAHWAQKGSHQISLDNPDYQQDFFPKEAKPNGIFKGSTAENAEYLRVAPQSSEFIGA
Chain of SRC (P12931 whole entry): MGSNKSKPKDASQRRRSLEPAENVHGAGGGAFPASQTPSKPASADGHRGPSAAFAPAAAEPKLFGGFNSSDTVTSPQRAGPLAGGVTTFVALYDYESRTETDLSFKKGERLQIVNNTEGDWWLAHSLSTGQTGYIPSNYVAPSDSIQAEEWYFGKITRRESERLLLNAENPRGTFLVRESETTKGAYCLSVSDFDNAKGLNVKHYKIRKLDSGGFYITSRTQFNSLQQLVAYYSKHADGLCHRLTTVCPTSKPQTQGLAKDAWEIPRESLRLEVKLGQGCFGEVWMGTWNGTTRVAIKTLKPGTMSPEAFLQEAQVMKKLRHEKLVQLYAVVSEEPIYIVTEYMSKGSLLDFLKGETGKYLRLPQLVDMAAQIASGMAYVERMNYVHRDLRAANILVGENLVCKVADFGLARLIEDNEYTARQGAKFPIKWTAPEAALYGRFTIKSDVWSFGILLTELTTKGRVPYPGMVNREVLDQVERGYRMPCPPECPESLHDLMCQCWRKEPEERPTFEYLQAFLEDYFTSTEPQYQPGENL

IC50 (SRC)	IC50 (JAK3)	IC50 (EGFR)	SMILES
100 to 1000 nM	1000 to 10000 nM	100 to 1000 nM	C[C@@H]1[C@H](NC(=O)c2ccc(C(O)(C(F)(F)F)C(F)(F)F)cc2)CCCN1c1cnc(C(N)=O)c(Nc2cnn(C)c2)n1 [Example D-240, 5-[(2R,3R)-3-[4-(1,1,1,3,3,3-hexafluoro-2-hydroxypropan-2-yl)benzamido]-2-methylpiperidin-1-yl]-3-[(1-methyl-1H-pyrazol-4-yl)amino]pyrazine-2-carboxamide]
10 to 100 nM	1000 to 10000 nM	100 to 1000 nM	C[C@@H]1[C@H](NC(=O)c2ccc(SC(F)(F)F)cc2)CCCN1c1cnc(C(N)=O)c(Nc2cnn(C)c2)n1 [Example D-241, 3-[(1-methyl-1H-pyrazol-4-yl)amino]-5-[(2R,3R)-2-methyl-3-{4-[(trifluoromethyl)sulfanyl]benzamido}piperidin-1-yl]pyrazine-2-carboxamide]
10 to 100 nM	100 to 1000 nM	1000 to 10000 nM	Cc1nc2cc(C(=O)N[C@@H]3CCCN(c4cnc(C(N)=O)c(Nc5cnn(C)c5)n4)[C@@H]3C)ccc2s1 [Example D-242, N-[(2R,3R)-1-{5-carbamoyl-6-[(1-methyl-1H-pyrazol-4-yl)amino]pyrazin-2-yl}-2-methylpiperidin-3-yl]-2-methyl-1,3-benzothiazole-5-carboxamide]

Source: patent US20210070748A1, “INHIBITORS OF BRUTONS TYROSINE KINASE” (Pharmacyclics LLC, priority 2015, published 2021)
